# Measured values: patent US12594281B2, “Pharmaceutical dosage forms and methods of use” (EMALEX BIOSCIENCES, INC., priority 2024, dated 2026)
# Where “and” joins values, the source holds several entries; their conditions need not be identical. Identical values can stand only once. Like-named read-outs stand apart in the source and are kept apart here.
# Tests used:
# [1] = target: ^3H-23390 binding site (Homo sapiens, UniProt P21728); details: read-out: Ki ^3H-23390; cited from earlier work
# [2] = target: ^3H-Spip binding site (Homo sapiens, UniProt P14416); details: read-out: Ki ^3H-Spip; cited from earlier work
# [3] = cited from earlier work
# [4] = Phase 1 absorption, metabolism and excretion study of [14C]-ecopipam, single oral capsule dose; assay type: in vivo, human
# Source text: Healthy subjects of any ethnic origin, aged between 35 and 55 years, inclusive, with a body mass index between 18.0 and 30.0 kg/m^2, inclusive, were selected for the study.
# [5] = minipig, in vivo
# Source text: (§2) The minipigs were 4-5 months old with a weight range within 10-15 kg at dosing. 3 male animals were used.
# (§3) The concentration-time data were normalized for differences in dose.
# [6] = Phase 2 exposure-response for efficacy in Tourette's Disorder; assay type: in vivo, human; details: logistic regression model
# [7] = Thorough QT study with C-QT analysis (EBS-101-HV-105); assay type: in vivo, human; details: for 10 msec increase in ΔΔQTcF interval: primary model
# Description: A randomized, double-blind, single dose, 4-way crossover thorough QT study was conducted with an open-label active control (EBS-101-HV-105, 2024).
# The primary endpoint for this study was pre-specified to be based on C-QT analysis using the methods outlined in the white paper (Garnett C, 2018) (Garnett C B. P., 2018).
# [8] = Exposure-response analyses for safety (sedation, QTc); set-up: species or system human; details: in vivo
# Source text: Exposure-response analyses have been conducted for safety using sedation as an endpoint and cardiac safety (QTc).
# [9] = Clinical drug-drug interaction study with rifampicin (EBS-101-HV-106); assay type: in vivo, human; details: rifampicin co-administered with oral ecopipam
# Source text: (§1) The results from these studies are summarized in Table 7 below along with clinical recommendations.
# [10] = Clinical drug-drug interaction study with divalproate sodium, general UGT inhibitor (EBS-101-HV-102); assay type: in vivo, human; details: divalproate sodium co-administered with oral ecopipam
# Source text: as §1
# [11] = Clinical drug-drug interaction study with mefenamic acid, specific UGT1A9 inhibitor (EBS-101-HV-102); assay type: in vivo, human; details: mefenamic acid co-administered with oral ecopipam
# Source text: as §1
# [12] = Pharmacokinetics of sublingual vs oral tablet in minipigs
# Source text: as §2, §3
# [13] = BCS solubility of Ecopipam HCl in pH buffers and bio-relevant media; assay type: physicochemical; details: for solubility at 24 h: 37 °C, thermodynamic from solid; for Solubility / Purity at 24 hours in solubility test: 37° C.
# Description: Solubility and final pH were the average of three parallel values. Purity was that of 24 hours. N/A means not performed.
# [14] = single oral dose 200 mg [14C]-ecopipam HCl
# [15] = single dose of ecopipam 537.6 mg
# [16] = after single oral dose of [14C]-ecopipam HCl
# [17] = minipig, dose-normalized, Zydis ODT 25 mg sublingual vs IR tablet 50 mg oral (ecopipam HCl)
# [18] = single oral dose 200 mg, fasted
# Sequence of ^3H-23390 binding site (P21728 whole entry): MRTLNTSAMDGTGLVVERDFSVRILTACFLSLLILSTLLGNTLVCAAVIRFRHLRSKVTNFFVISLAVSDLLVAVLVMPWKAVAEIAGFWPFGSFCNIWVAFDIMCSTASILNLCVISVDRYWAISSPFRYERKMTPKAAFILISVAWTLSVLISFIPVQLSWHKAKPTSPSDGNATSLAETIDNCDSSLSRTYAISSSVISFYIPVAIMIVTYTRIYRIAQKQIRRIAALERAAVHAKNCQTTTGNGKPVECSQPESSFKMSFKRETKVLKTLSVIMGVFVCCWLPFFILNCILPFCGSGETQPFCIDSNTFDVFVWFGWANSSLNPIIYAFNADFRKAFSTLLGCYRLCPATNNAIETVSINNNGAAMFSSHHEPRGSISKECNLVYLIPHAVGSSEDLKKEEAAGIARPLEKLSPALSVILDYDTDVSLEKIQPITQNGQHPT
# Sequence of ^3H-Spip binding site (P14416 whole entry): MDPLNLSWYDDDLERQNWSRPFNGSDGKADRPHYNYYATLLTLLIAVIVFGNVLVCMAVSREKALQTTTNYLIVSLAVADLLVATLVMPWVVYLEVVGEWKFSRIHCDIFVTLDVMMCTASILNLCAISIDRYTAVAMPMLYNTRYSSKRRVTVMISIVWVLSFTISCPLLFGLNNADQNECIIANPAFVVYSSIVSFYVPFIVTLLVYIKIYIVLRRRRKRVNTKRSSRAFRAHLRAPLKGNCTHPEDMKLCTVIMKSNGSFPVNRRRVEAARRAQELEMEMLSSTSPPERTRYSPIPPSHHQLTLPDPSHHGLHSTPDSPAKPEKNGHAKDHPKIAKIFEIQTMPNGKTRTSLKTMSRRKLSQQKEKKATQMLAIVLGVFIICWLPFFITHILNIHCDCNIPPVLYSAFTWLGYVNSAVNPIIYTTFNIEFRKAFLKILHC
smiles,measurement,setting,value
Cc1cc2c(cc1O)C1c3ccccc3CCC1N(C)CC2 (stereo not drawn) [CH2/1/trans/CH3/OH],Ki,[1],119 nM
same,Ki,[2],7200 nM
CN1CCc2ccc(O)cc2C2c3ccccc3CCC21 (stereo not drawn) [CH2/1/trans/H/OH],Ki,[1],30 nM
same,Ki,[2],3500 nM
CN1CCc2cc(Cl)c(N)cc2C2c3ccccc3CCC21 (stereo not drawn) [CH2/1/trans/Cl/NH2],Ki,[1],70 nM
same,Ki,[2],4180 nM
same,CAR (MED),[3]; po,3 (po)
Oc1cc2c(cc1Cl)CCNC1CCc3ccccc3C21 (stereo in doubt) [EBS-101-40853],Geometric mean AUC ratio of plasma analyte to plasma total radioactivity,"[4]; human, in vivo, po, 200 mg",0.00178
same,Percentage of dose excreted in urine as analyte (geometric mean),"[4]; in vivo, po",0.0645%
same,Share of radioactivity in plasma,"[4]; in vivo, po",0.26%
same,Geometric mean apparent terminal elimination half-life (t½) of analyte,"[4]; in vivo, po, 200 mg",25.6 h
same,Geometric mean renal clearance,"[4]; in vivo, po, 200 mg",1.53 L/h
same,Reduction of first pass metabolite concentration vs oral dosage form for oral systemic administration,[5],48-55%
COc1cc2c(cc1O)C1c3ccccc3CCC1N(C)CC2 (stereo not drawn) [CH2/1/trans/CH3O/OH],Ki,[1],23 nM
same,Ki,[2],2500 nM
same,CAR (MED),[3]; po,30 (po);
same,CAR (MED),[3]; sc,0.3-1 (sc)
COc1cc2c(cc1O)CCN(C)C1CCCc3ccccc3C21 (stereo not drawn) [CH2/2/trans/HO/CH3O],Ki,[1],7730 nM
same,Ki,[2],> 100000 nM
same,CAR (MED),[3]; sc,10 (sc)
"CN1CCc2cc(Cl)c(O)cc2[C@H]2c3ccccc3CC[C@@H]21 [ecopipam, (−)-trans-6,7,7a,8,9,13b-hexahydro-3-chloro-2-hydroxy-N-methyl-5H-benzo [d]-naphtho-[2,1-b]azepine]",half-life,"[4]; male, human, plasma, single oral dose 200 mg [14C]-ecopipam HCl, read-out: Geometric mean apparent terminal elimination half-life (t½) of analyte (converted)",17.3 h
same,CL renal,"[4]; male, human, urine, single oral dose 200 mg [14C]-ecopipam HCl, read-out: Geometric mean renal clearance (converted)",4.73 mL/min
same,Share of the radiolabeled dose found as ecopipam in plasma,[4]; oral systemic administration,about 1.69%
same,Median time of the maximum observed concentration of analyte in plasma,[4]; [14],2.00 hours postdose
same,Percentage of dose excreted in urine as analyte (geometric mean),[4]; [14],< 1%
same,"Unchanged compound in feces, share of the total administered dose",[4]; [14],6%
same,Increase in odds of being a responder at 12 weeks per 100 unit increase in combined steady-state AUC of ecopipam and EBS-101-40853,[6],6.8%
same,10 msec increase in ΔΔQTcF interval,[7]; single dose ecopipam 179.2 mg + a general UGT inhibitor,cannot be ruled out
same,10 msec increase in ΔΔQTcF interval,[7]; single dose ecopipam 179.2 mg,can be ruled out
same,Effect on QTcF,[7]; [15],increase
same,Predicted increase in ΔΔQTcF interval,[7]; [15],up to 20.4 msec
same,"Effect on HR, QRS, or PR intervals",[7]; single doses 179.2 mg and 537.6 mg,no effect
same,Exposure-response relationship for QTc,[8],exposure-response relationship
same,Relationship between plasma Cmax or AUCinf and choice reaction time or visual analogue scale for sedation,[8],no relationship
same,Lower Cmax and AUC∞,[9],substantially (72-77%) lower Cmax
same,Increase in AUC∞,[10],"40853 glucuronide, a ~2.1x increase"
CN1CCc2cc(Cl)c(O)cc2C2c3ccccc3CCC21 (stereo not drawn) [CH2/1/trans/Cl/OH],CAR (MED),[3]; po,30 (po);
same,CAR (MED),[3]; sc,0.3 (sc)
COc1cc2c(cc1O)C1c3ccccc3CCCC1N(C)CC2 (stereo not drawn) [CH2/2/trans/CH3O/OH],Ki,[1],292 nM
same,Ki,[2],> 100000 nM
same,CAR (MED),[3]; sc,10 (sc)
"CN1CCc2cc(Cl)c(O[C@@H]3O[C@H](C(=O)O)[C@@H](O)[C@H](O)[C@H]3O)cc2C2c3ccccc3CCC21 (stereo partly drawn) [ecopipam glucuronide, ecopipam O-β-D-glucuronide]",Share of radioactivity in plasma,[4]; [16],80%
same,Share of radioactivity in the urine,[4]; [16],67%
same,Lower Cmax,[9],22%
same,Lower Cmax,[10],23%
same,Lower Cmax,[11],15%
same,Ratio of SL/oral AUC,[12]; [17],0.15
same,Ratio of SL/oral Cmax,[12]; [17],0.24
same,Reduction of first pass metabolite concentration vs oral dosage form for oral systemic administration,[12]; sublingual / intraoral dosage form,76-85% and 75-85%
COc1cc2c(cc1O)C1c3ccccc3CCC1N(C)CC2 (stereo not drawn) [CH2/1/cis/CH3O/OH],Ki,[1],6450 nM
same,Ki,[2],> 100000 nM
CN1CCc2cc(Cl)c(O)cc2[C@@H]2c3ccccc3CC[C@H]21 [CH2/1/7b(S):7a(R)(+)/Cl/OH],CAR (MED),[3]; po,>30 (po)
CN1CCc2cc(Cl)c(O)cc2[C@H]2c3ccccc3CC[C@@H]21 [CH2/1/7b(R):7a(S)(−)/Cl/OH],CAR (MED),[3]; po,30 (po)
CN1CCc2cc(Cl)c(O)cc2[C@H]2c3ccccc3CC[C@@H]21.Cl [[^14C]-ecopipam HCl],Median time of the maximum observed concentration of total radioactivity in whole blood,[4]; single oral dose 200 mg,2.00 hours postdose
same,Arithmetic mean radioactivity recovered in feces,[4]; [18],8.27%
same,Arithmetic mean radioactivity recovered in urine,[4]; [18],83.3%
CN1CCc2cc(Cl)c(O)cc2C2c3ccccc3CC21 (stereo not drawn) [CH2/0/trans/Cl/OH],Ki,[1],10 nM
same,Ki,[2],2600 nM
CN1CCc2cc(Cl)c(O)cc2[C@H]2c3ccccc3CC[C@@H]21.Cl [Ecopipam HCl],solubility at 24 h,"[13]; pH 1.2, simulated gastric fluid, pH 1.2 HCl buffer, 50 mM, up to 24 hours, final pH 1.23",1560 µg/mL
same,solubility at 24 h,"[13]; pH 1.61, fassgf or other biorelevant, FaSSGF, final pH 1.61",2000 µg/mL
same,solubility at 24 h,"[13]; pH 3, aqueous buffer, pH 3.0 citrate buffer, 100 mM, up to 24 hours, final pH 2.96",9400 µg/mL
same,solubility at 24 h,"[13]; pH 3, aqueous buffer, pH 3.0 phthalate buffer, 50 mM, up to 24 hours, final pH 3.05",8 µg/mL
same,solubility at 24 h,"[13]; pH 4.5, aqueous buffer, pH 4.5 acetate buffer, 50 mM, up to 24 hours, final pH 4.50",3300 µg/mL
same,solubility at 24 h,"[13]; pH 5.5, aqueous buffer, pH 5.5 acetate buffer, 50 mM, up to 24 hours, final pH 5.49",230 µg/mL
same,solubility at 24 h,"[13]; pH 5.84, fessif, FeSSIF-V2, final pH 5.84",660 µg/mL
same,solubility at 24 h,"[13]; pH 6.49, fassif, FaSSIF-V2, final pH 6.49",50 µg/mL
same,solubility at 24 h,"[13]; pH 6.8, aqueous buffer, pH 6.8 phosphate buffer, 50 mM, up to 24 hours, final pH 6.85",20 µg/mL
same,Solubility,"[13]; FaSSGF, final pH 1.61",2020 µg/mL
same,XRPD (crystalline form after solubility test),[13]; FaSSIF-V2,Changed
same,XRPD (crystalline form after solubility test),[13]; FeSSIF-V2,Changed
same,Time stable in bio-relevant media,"[13]; bio-relevant media at 37° C., degradation occurred from 3 hours",up to 1 hour
same,Purity at 24 hours in solubility test,"[13]; pH 1.2 HCl buffer, 50 mM",99.87%
same,XRPD (crystalline form after solubility test),"[13]; pH 3.0 citrate buffer, 100 mM",did not exhibit a change in crystallinity
same,Purity at 24 hours in solubility test,"[13]; pH 3.0 citrate buffer, 100 mM",99.87%
same,Solubility,"[13]; pH 3.0 citrate buffer, 100 mM, up to 24 hours, final pH 2.96",9420 µg/mL
same,XRPD (crystalline form after solubility test),"[13]; pH 3.0 phthalate buffer, 50 mM",Changed
same,XRPD (crystalline form after solubility test),"[13]; pH 4.5 acetate buffer, 50 mM",Changed
same,Purity at 24 hours in solubility test,"[13]; pH 4.5 acetate buffer, 50 mM",99.85%
same,XRPD (crystalline form after solubility test),"[13]; pH 5.5 acetate buffer, 50 mM",Changed
same,Purity at 24 hours in solubility test,"[13]; pH 5.5 acetate buffer, 50 mM",100.00%
same,XRPD (crystalline form after solubility test),"[13]; pH 6.8 phosphate buffer, 50 mM",Changed
same,Purity at 24 hours in solubility test,"[13]; pH 6.8 phosphate buffer, 50 mM",100.00%
CN1CCc2ccc(O)cc2C2c3ccccc3OCC21 (stereo not drawn) [O/1/trans/H/OH],Ki,[1],121 nM
